In patent US9315451B2, “Tetracycline compounds” (priority 2009, dated 2016):
Like-named read-outs stand apart in the source and are kept apart here.

How the values were obtained:
[1] = system: tetracycline-resistant tet(M) S. pneumoniae strain SP160; assay: Neutropenic respiratory infection model for S. pneumoniae (murine lung infection); assay type: in vivo; settings: neutropenic BALB/c mice, SP160 intranasal, 30 mg/kg orally at 2 and 12 hours post-infection, lung CFU at 24 hours
Method: Neutropenic Respiratory Infection Models for S. pneumoniae
Compounds were tested in a neutropenic BALB/c murine model of lung infection challenged with tetracycline-resistant tet(M) S. pneumoniae strain SP160. Mice were made neutropenic by pre-treatment with cyclophosphamide and infected with SP160 via intranasal administration. Mice were dosed orally with 30 mg/kg compound at 2 and 12 hours post-infection. At 24 hours following initiation of treatment, mice were euthanized and bacterial reduction in the lung was quantified by plating lung homogenates. Data was recorded as log10 reduction in lung colony forming units versus an untreated control group.

[2] = Pharmacokinetic studies in rats; assay type: in vivo; settings: rat, plasma, male Sprague Dawley rats, fasted; for clearance: read-out: Cl, IV Rat PK; for bioavailability: oral 10 mg/kg vs IV 1 mg/kg, read-out: % F (oral bioavailability), Oral Rat PK; for Cmax: read-out: Cmax, IV Rat PK
Method: Pharmacokinetic Studies in Rats Test compounds were evaluated in fasted (no food for 18 hours prior to dosing) male Sprague Dawley rats (3 animals per group) by administration of 1 mg/kg intravenously into the jugular vein and […] by oral gavage. Ten plasma samples were drawn for each dosing route up to 24 hours into heparin-coated vacutainer tubes. The plasma concentrations of the test compounds were quantified by LC/MS/MS using an internal standards. WinNONLIN was used to determine PK parameters ±standard deviation (AUC, Cmax, CL, Vss and % oral bioavailabilty (% F) and are set forth in Table F.

[3] = system: S. aureus Smith (ATCC 13709); assay: Mouse systemic infection (septicemia) model, S. aureus Smith; assay type: in vivo; settings: Staphylococcus aureus, CD-1 female mice; for responders at 3 mg/kg: ATCC13709, iv, IV 3 mg/kg one hour post infection, read-out: SA Smith septicemia survival IV (3 mg/kg); for responders at 3 mg/kg / responders at 30 mg/kg: 48 h, survival at 48 hours; for responders at 30 mg/kg: ATCC13709, po, PO 30 mg/kg one hour post infection, read-out: SA Smith septicemia survival PO (30 mg/kg); for ED50: ATCC13709, dose that prevents 50% of the mice from death, 48 hours
How it was run: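 Female CD-1 mice (18-22 g) infected IP with an inoculum lethal to all within 24–48 h. Compound given 1 h post-infection IV ([…]) or PO ([…]), typically six mice per dose group; survival followed for 48 h and PD50 (mg/kg) derived from 48 h survival.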

[4] = system: Uropathogenic E. coli EC200; assay: Murine kidney infection model, uropathogenic E. coli EC200; assay type: in vivo; settings: BALB/c mice; for EC200 UTI IV, log10 reduction in CFUs in the kidney versus untreated controls: @ 5 mpk in cells (column head 3 mg/kg); for log reduction at 2 mg/kg: PO 2 mg/kg at 12 and 24 hours post infection
Method: (§1) Kidney Infection Models for Uropathogenic E. coli EC200 and K. pneumoniae ESBL Isolate KP453
Compounds were tested in a BALB/c murine kidney infection model challenged with tetracycline-resistant E. coli strain uropathogenic […] via intravenous injection. […] For IV administration test compound was dosed at 3 mg/kg. Thirty-six hours following initiation of treatment, mice were euthanized and bacterial reduction in the kidney was quantified by plating kidney homogenates. Results are reported in Table D as log10 reduction in colony forming units (CFUs) in the kidney versus untreated controls (receiving no test compound).

[5] = system: K. pneumoniae ESBL Isolate KP453; assay: Murine kidney infection model, K. pneumoniae ESBL isolate KP453; assay type: in vivo; settings: BALB/c mice; for KP453 ESBL UTI IV, log10 reduction in CFUs in the kidney versus untreated controls: IV 20 mg/kg; for log reduction at 50 mg/kg: Klebsiella pneumoniae, po, 36 h, PO 50 mg/kg at 9 and 24 hours post infection, read-out: KP453 ESBL UTI PO, log10 reduction in CFUs in the kidney versus untreated controls
Method: as §1
Compounds were also tested in BALB/c murine kidney infection model challenged with levofloxacin-resistant, ESBL^+ strain KP453 via intravenous injection with 2% carageenen. At 9 and 24 hours post infection mice were treated orally with 50 mg/kg of test compound. For IV administration, test compounds were dosed at 20 mg/kg. At 36 hours following initiation of treatment, mice were euthanized and bacterial reduction in the kidney was quantified by plating homogenates. Results are reported in Table D as log10 reduction in colony forming units (CFUs) in the kidney versus untreated controls (receiving no test compound).

[6] = system: tetracycline-resistant tet(M) MRSA strain SA191; assay: Neutropenic respiratory infection model for MRSA (murine lung infection); assay type: in vivo, Staphylococcus aureus; settings: neutropenic BALB/c mice, SA191 intranasal, 50 mg/kg orally at 2 and 12 hours, lung CFU at 24 hours
Method: Neutropenic Respiratory Infection Model for MRSA
Compounds were tested in a neutropenic BALB/c murine model of lung infection challenged with a tetracycline-resistant tet(M) MRSA strain SA191 infected via intranasal administration. At 2 and 12 hours mice were dosed orally with 50 mg/kg compound. At 24 hours following initiation of treatment, mice were euthanized and bacterial reduction in the lung was quantified by plating lung homogenates. Data was recorded as log10 reduction in lung colony forming units versus an untreated control group.

[7] = Monkey PK; assay type: in vivo; settings: cynomolgus monkey, plasma, cynomolgus monkeys; for bioavailability: PO 10 mg/kg vs IV 1 mg/kg, read-out: % F (oral bioavailability), monkey
Method: Compounds S24-9-23 and S16-10-161 were evaluated in 3 non-naïve cynomolgus monkeys. Each animal received a single IV dose of 1 mg/kg and after a 7-day washout, received a single PO dose of 10 mg/kg. Nine to ten plasma samples were drawn for each dosing route up to 24 hours into heparin-coated vacutainer tubes. Dose formulations were verified with a 5-point calibration curve. The plasma concentration of the compound was quantified by LC/MS/MS using an internal standard.

[8] = IV 1 mg/kg, read-out: AUC, IV Rat PK
[9] = oral gavage 10 mg/kg, read-out: AUC, Oral Rat PK
[10] = PO, read-out: SA Smith septicemia PD50 PO
[11] = Escherichia coli, po, 36 h, read-out: EC200 UTI PO, log10 reduction in CFUs in the kidney versus untreated controls
[12] = single IV dose of 1 mg/kg, read-out: AUC, IV, monkey
[13] = single PO dose of 10 mg/kg, read-out: AUC, oral, monkey
[14] = single PO dose of 10 mg/kg, read-out: Cmax, oral, monkey

Row | SMILES | Bacterial Reduction in the Lung (Log10 change from 24 hour control) [1] | clearance ([2]; IV 1 mg/kg) | bioavailability [2] | AUC [2, 8] | Cmax ([2]; IV 1 mg/kg) | AUC [2, 9] | responders at 3 mg/kg [3] | responders at 30 mg/kg [3] | EC200 UTI IV, log10 reduction in CFUs in the kidney versus untreated controls [4] | log reduction at 2 mg/kg [4, 11] | KP453 ESBL UTI IV, log10 reduction in CFUs in the kidney versus untreated controls [5] | log reduction at 50 mg/kg [5] | Bacterial Reduction in the Lung (Log10 change from 24 hour control) [6] | also measured
1 | CCC(C)(C)N(C)Cc1cc(O)c2c(c1F)C[C@H]1C[C@H]3[C@H](N(C)C)C(O)=C(C(N)=O)C(=O)[C@@]3(O)C(O)=C1C2=O [Compound S2-4-28] | −0.06 Log10 | 17.6 mL/min/kg | 44.7% | 970 ng·h/mL | 170 ng/mL | 4380 ng·h/mL | 100% | 100% | – | – | – | – | – | ED50 ([3]; IV, read-out: SA Smith septicemia PD50 IV): 0.62 mg/kg; ED50 [3, 10]: 3 mg/kg
2 | COc1c(CN(C)C(C)(C)C2CC2)cc(O)c2c1C[C@H]1C[C@H]3[C@H](N(C)C)C(O)=C(C(N)=O)C(=O)[C@@]3(O)C(O)=C1C2=O [S24-9-21] | −0.89 Log10 | – | – | – | – | – | 100% | 100% | @ 5 mpk −4.09 log10 | 2.3 | −2.87 log10 | 2.16 | −1.98 Log10 | –
3 | C[C@H]1CC[C@H](C)N1Cc1cc(O)c2c(c1Cl)C[C@H]1C[C@H]3[C@H](N(C)C)C(O)=C(C(N)=O)C(=O)[C@@]3(O)C(O)=C1C2=O [Compound S15-13-223] | −0.12 Log10 | – | – | – | – | – | 100% | 100% | – | 2.27 | – | 1.32 | – | –
4 | CN(C)[C@@H]1C(O)=C(C(N)=O)C(=O)[C@@]2(O)C(O)=C3C(=O)c4c(O)c(N)c(CN5CCCCCC5)c(Cl)c4C[C@H]3C[C@@H]12 [Compound S29-2-4] | – | – | – | – | – | – | 100% | 83% | – | – | – | – | −1.29 Log10 | –
5 | CN(C)c1c(CN2CCCCC2)cc(O)c2c1C[C@H]1C[C@H]3[C@H](N(C)C)C(O)=C(C(N)=O)C(=O)[C@@]3(O)C(O)=C1C2=O [Compound S16-10-161] | – | 12.8 mL/min/kg | 31.6% | 1310 ng·h/mL | 689 ng/mL | 4440 ng·h/mL | 100% | 100% | @ 5 mpk −3.99 log10 | 1.85 | −3.09 log10 | 1.04 | – | bioavailability [7]: 42.7%; clearance ([7]; single IV dose of 1 mg/kg, read-out: Cl, IV, monkey (printed C1, mL/hr) (converted)): 184 mL/h; Vd ([7]; single IV dose of 1 mg/kg, read-out: Vdss, IV, monkey (unit inferred)): 4.05 L/kg; AUC [7, 12]: 5680 ng·h/mL; Cmax ([7]; single IV dose of 1 mg/kg, read-out: Cmax, IV, monkey (unit inferred)): 861 ng/mL; AUC [7, 13]: 26000 ng·h/mL; Cmax [7, 14]: 982 ng/mL
6 | C[C@@H](NCc1cc(O)c2c(c1N(C)C)C[C@H]1C[C@H]3[C@H](N(C)C)C(O)=C(C(N)=O)C(=O)[C@@]3(O)C(O)=C1C2=O)C(C)(C)C [Compound S16-10-79] | −4.31 Log10 | – | – | – | – | – | 100% | 100% | – | – | – | – | −1.27 Log10 | –
7 | COc1c(CN2CCCCC2)cc(O)c2c1C[C@H]1C[C@H]3[C@H](N(C)C)C(O)=C(C(N)=O)C(=O)[C@@]3(O)C(O)=C1C2=O [Compound S24-9-23] | – | 9.26 mL/min/kg | 12.2% | 1830 ng·h/mL | 795 ng/mL | 2230 ng·h/mL | 100% | 100% | @ 5 mpk −4.34 log10 | 2.99 | −2.95 log10 | 2.93 | – | bioavailability [7]: 36.8%; clearance ([7]; single IV dose of 1 mg/kg, read-out: Cl, IV, monkey (converted)): 2.4 mL/min/kg; Vd ([7]; single IV dose of 1 mg/kg, read-out: Vdss, IV, monkey): 3.4 L/kg; AUC [7, 12]: 7070 ng·h/mL; Cmax ([7]; single IV dose of 1 mg/kg, read-out: Cmax, IV, monkey): 1370 ng/mL; AUC [7, 13]: 22800 ng·h/mL; Cmax [7, 14]: 1350 ng/mL
8 | CN(C)[C@@H]1C(O)=C(C(N)=O)C(=O)[C@@]2(O)C(O)=C3C(=O)c4c(O)cc(CN5CCCCCC5)c(Cl)c4C[C@H]3C[C@@H]12 [Compound S15-13-188] | −0.22 Log10 | – | – | – | – | – | 100% | 100% | – | – | – | 1.55 | – | log reduction at 3 mg/kg ([4]; Escherichia coli, po, 36 h, PO @ 3 mpk, read-out: EC200 UTI PO, log10 reduction in CFUs in the kidney versus untreated controls): 3.48; ED50 [3, 10]: 8.3 mg/kg
